Holding throughout (test): DTP human tumour cell line panel, 48 h
Assay [1] deals with A549 NSCLC.
Assay [2] has as its system CAKI-1 renal.
Assay [3] relates to HOP-92 NSCLC.
Assay [4] concerns NCI-H522 lung.
Assay [5] has as its system OVCAR-5 ovarian.
In assay [6] the test system is SF-268 CNS.
The subject of assay [7] is SF-295 CNS.
Assay [8] has as its system SW-620 colon.
The subject of assay [9] is TK-10 renal.
Assay [10] relates to U251 CNS.

For orientation: TGI means the concentration at which net growth stops. As usually defined, the GI50 is the concentration that inhibits growth by half.

Values joined by “and” are separate entries in the source; they are usually repeats but may differ in a detail not shown here. Equal values may be shown once.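 How tested: cells in 96-well plates exposed to compound for 48 hours at five concentrations. Here, GI50 denotes the concentration required for 50% inhibition of growth. TGI denotes the concentration required for complete inhibition of growth.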

With `CCCCCCCCCCCCCC(=O)OCC1OC(n2cc(F)c(=O)[nH]c2=O)C(NC(=O)OCc2ccccc2)C(OC(=O)CCCCCCCCCCCCC)C1O` (centres undefined), the TGI in [1], in assay [2], in assay [3], in [4], in assay [5] and in [6] was over 100 µM throughout. For the same molecule, the TGI in [7], in assay [8], in assay [9] and in assay [10] was over 100 µM each time.
Turning to `O=[N+]([O-])c1ccccc1N/N=C\c1c[nH]c2ccccc12`, the GI50 in assay [1] was 20.2 µM; in assay [2], 3.93 µM; in [3], 4.45 µM; in assay [4], 11.6 µM; in assay [5], over 58.2 µM; in assay [6], 9.04 µM. Besides, the GI50 is 9.5 µM in assay [7], 17.8 µM in assay [8], 15 µM in [9] and 10.6 µM in [10]. Moreover, the TGI is over 100 µM in assay [1]; over 100 µM in assay [2]; 49.2 µM in assay [3]; over 100 µM in assay [4]; over 100 µM in assay [5]; over 100 µM in [6]. Moreover, the TGI is 33 µM in assay [7], over 100 µM in assay [8], over 72.6 µM in assay [9] and 24.2 µM in assay [10].
For the molecule `COc1ccc(C2CC(c3cc(C)ccc3O)=NC(N)=N2)cc1` (centres undefined), the TGI in assay [1], in assay [2], in assay [3], in [4], in [5] and in [6] was over 100 µM each time. In addition, the TGI in [7], in [8], in assay [9] and in [10] was over 100 µM in each case.
As for `CC1=CC(=C(c2ccc(N)cc2)c2ccc(N)cc2)C=CC1=N`, the GI50 in assay [1] was 2.68 µM; in [2] it was 3.35 µM and 8.97 µM; in [3] it was 0.949 µM and 3.25 µM; in [4], 1.8 µM and 2.26 µM; in [5], 3.42 µM; in [6], 0.668 µM. Besides, the GI50 was 1.03 µM and 1.32 µM in assay [7]; 0.668 µM and 3.25 µM in assay [8]; 2.99 µM and 4.98 µM in assay [9]; 0.316 µM and 0.455 µM and 0.538 µM in assay [10]. The TGI is 20.1 µM and 50.6 µM and 15.9 µM in [1]; 13.9 µM and 51.7 µM and 35.6 µM in assay [2]; 17.8 µM and 7.03 µM in [4]; 14.4 µM and > 71.9 µM and > 100 µM in [5]; 14.4 µM and 19.4 µM and 14.5 µM in [6]; 5.82 µM and 7.65 µM and 6.06 µM in [7]. The TGI in assay [8] is 11.8 µM and 38.8 µM and 16 µM; in assay [9], 15.6 µM and 50.2 µM and 19.5 µM; in assay [10], 5.38 µM and > 36 µM and 13 µM.
In the case of `CC(C)(C)OC(=O)NCCc1cccc2c1oc1c(CCC(=O)O)cccc12`, the TGI in [1], in assay [2], in [3], in assay [4], in [5] and in assay [6] was over 100 µM in each case. Further, the TGI in assay [7], in assay [8], in [9] and in [10] was over 100 µM throughout.
`Cn1cc(C2=C(c3cn(C)c4c([N+](=O)[O-])cccc34)C(=O)NC2=O)c2ccccc21`: the GI50 in assay [1], in assay [2], in assay [3], in assay [4], in assay [5] and in [6] was over 25 µM each time. Also, the GI50 in [7], in assay [8], in [9] and in [10] was over 25 µM in each case. Further, the TGI in [1], in assay [2], in assay [3], in [4], in assay [5] and in assay [6] was over 25 µM in each case. Further, the TGI in assay [7], in assay [8], in assay [9] and in [10] was over 25 µM throughout.
Take `CC(=O)OC1CCCn2c1nc1c2C(=O)C(C)=C(N2CC2)C1=O` (centres undefined): the TGI worked out at 2.77 µM in assay [1]; 0.687 µM in assay [2]; 54.6 µM in [3]; 0.636 µM in [4]; 1.32 µM in assay [5]; 1.05 µM in assay [6]. In addition, the TGI in assay [7] was determined as 0.665 µM; in [8], 0.927 µM; in assay [9] it was 7.28 µM; in assay [10], 0.533 µM.
On to `Nc1nc(OCc2cc(Br)cs2)c2[nH]cnc2n1`, for which the GI50 in assay [1] is 32.9 µM; in [2], 9.94 µM; in assay [3], 3.11 µM; in [4] it was 26.8 µM; in assay [5] it was 29.8 µM; in assay [6], 32.3 µM. In addition, the GI50 is 25.9 µM in assay [7], 40.2 µM in [8], 10.2 µM in [9] and 28.8 µM in assay [10]. In addition, the TGI in [1] was over 100 µM; in [2], 79.6 µM; in assay [3] it was 37 µM; in assay [4], over 100 µM; in assay [5], over 100 µM; in assay [6], over 100 µM. Moreover, the TGI in assay [7] was over 100 µM; in [8], over 100 µM; in assay [9], 62.9 µM; in [10], over 100 µM.
`O=[N+]([O-])c1ccc(Sc2ncnc3nc[nH]c23)c2nonc12`: the GI50 is 29.6 µM in assay [1]; 5.97 µM in [2]; 2 µM in assay [3]; 1.39 µM in assay [4]; 10.3 µM in assay [5]; 5 µM in [6]. Further, the GI50 in assay [7] was 3.87 µM; in assay [8], 1.63 µM; in assay [9], 2.34 µM; in assay [10] it was 14.8 µM. Besides, the TGI in assay [1] was over 100 µM; in [2] it was 33.7 µM; in [3] it was 22.2 µM; in assay [4], 2.71 µM; in assay [5], 22.6 µM; in assay [6], 19.7 µM. In addition, the TGI in assay [7] is 20.6 µM; in assay [8] it was 3.44 µM; in [9] it was 23.7 µM; in assay [10], 50.5 µM.
For `O=C(/C(=C\c1ccc([N+](=O)[O-])cc1)S(=O)Cc1ccc(F)cc1)c1ccc(F)cc1` (centres undefined), the GI50 in assay [1] is 2.83 µM; in [2] it was 2.07 µM; in assay [3], 1.86 µM; in assay [4] it was 1.77 µM; in [5], 1.83 µM; in assay [6], 2.11 µM. Also, the GI50 in assay [7] was 1.68 µM; in assay [8] it was 1.58 µM; in assay [9], 2.31 µM; in [10], 1.72 µM. Besides, the TGI in assay [1] is 10.2 µM; in [2], 5.54 µM; in assay [3], 3.98 µM; in assay [4], 3.31 µM; in assay [5], 3.67 µM; in [6] it was 5.34 µM. The TGI in assay [7] turned out to be 3.72 µM; in assay [8], 3.13 µM; in assay [9], 7 µM; in assay [10], 3.44 µM.
In the case of `O=C(c1ccccc1)c1ccc(Oc2ccc([N+](=O)[O-])cc2[N+](=O)[O-])cc1`, the GI50 is 19.7 µM in assay [1]; 2.29 µM in [2]; 2.87 µM in assay [3]; 2.51 µM in [4]; 3.43 µM in [5]; 3.3 µM in assay [6]. Also, the GI50 in assay [7] was 2.62 µM; in assay [8], 4.36 µM; in assay [9], 8.33 µM; in assay [10] it was 3.25 µM. Besides, the TGI in [1] is 59.7 µM; in assay [2] it was 5.52 µM; in [3], 9.27 µM; in assay [4], 6.53 µM; in assay [5], 24.1 µM; in [6], 11.9 µM. In addition, the total growth inhibition concentration (TGI) in assay [7] is 8.51 µM; in assay [8] it was 23.7 µM; in assay [9] it was over 100 µM; in assay [10] it was 13.3 µM.
Turning to `CC1SC2=NC3=C(c4ccccc4C3=O)C(c3ccc(Cl)cc3)N2C1=O` (centres undefined), the TGI was over 100 µM in assay [1]; over 100 µM in [2]; over 100 µM in [3]; 87.8 µM in [4]; over 100 µM in assay [5]; over 100 µM in [6]. The TGI in assay [7], in assay [8], in [9] and in assay [10] was over 100 µM throughout.
Turning to `CC1(C)CCC2=C(O1)c1ccccc1C(=O)C2=O`, the GI50 in assay [1] is 2.15 µM; in [2], 1.74 µM; in [3], 1.72 µM; in [4], 1.89 µM; in assay [5], 1.81 µM; in assay [6], 1.44 µM. Also, the GI50 was 1.67 µM in assay [7], 1.86 µM in assay [8], 1.83 µM in assay [9] and 1.49 µM in [10]. The TGI is 5.14 µM and 1.73 µM in assay [1]; 3.13 µM and 2.47 µM in [2]; 3.33 µM and 10.4 µM in assay [3]; 4.79 µM and 1.52 µM in [4]; 3.33 µM and 1.02 µM in [5]; 3.32 µM and 1.83 µM in assay [6]. Besides, the TGI is 3.1 µM and 1.68 µM in [7]; 3.93 µM and 1.09 µM in assay [8]; 3.34 µM and 4.56 µM in assay [9]; 2.95 µM and 1.13 µM in [10].

The record behind these values is PubChem BioAssay (NCI).
